Where “and” joins values, the source holds several entries; their conditions need not be identical. Equal values may be shown once. Toxic doses and inconclusive results are not listed. How the source made its calls: active means survival T/C of 150% or more; inactive means T/C below 125% in these data.
Tested on: P388 leukemia ip, CD2F1 mice, survival T/C
Experiment: NCI In Vivo Anticancer Drug Screen. Data for tumor model P388 Leukemia (intraperitoneal) in CD2F1 (CDF1) mice
Details: endpoint: median survival time, higher = longer survival
Summary of the method: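 Mice carrying the transplanted tumor received test compound or vehicle. Survival was recorded in each group, and the value is the treated-group measurement divided by that of the vehicle-treated control group.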

[1] = dose: 50.0 mg/kg/injection, schedule: Q01DX005 (ip), vehicle: Klucel (hydroxypropylcellulose) (HPC)
[2] = dose: 100.0 mg/kg/injection, schedule: Q01DX005 (ip), vehicle: Klucel (hydroxypropylcellulose) (HPC)
[3] = dose: 200.0 mg/kg/injection, schedule: Q01DX005 (ip), vehicle: Klucel (hydroxypropylcellulose) (HPC)
[4] = dose: 50.0 mg/kg/injection, schedule: Q01DX005 (ip), vehicle: saline with Tween-80
[5] = dose: 100.0 mg/kg/injection, schedule: Q01DX005 (ip), vehicle: saline with Tween-80
[6] = dose: 200.0 mg/kg/injection, schedule: Q01DX005 (ip), vehicle: saline with Tween-80
[7] = dose: 200.0 mg/kg/injection, schedule: Q01DX009 (ip), vehicle: saline with Tween-80
[8] = dose: 12.5 mg/kg/injection, schedule: Q01DX009 (ip), vehicle: saline with Tween-80
[9] = dose: 25.0 mg/kg/injection, schedule: Q01DX009 (ip), vehicle: saline with Tween-80
[10] = dose: 60.0 mg/kg/injection, schedule: Q01DX005 (ip), vehicle: saline with Tween-80
[11] = dose: 120.0 mg/kg/injection, schedule: Q01DX005 (ip), vehicle: saline with Tween-80
[12] = dose: 240.0 mg/kg/injection, schedule: Q01DX005 (ip), vehicle: saline with Tween-80
[13] = dose: 100.0 mg/kg/injection, schedule: Q04DX003 (ip), vehicle: saline with Tween-80
[14] = dose: 200.0 mg/kg/injection, schedule: Q04DX003 (ip), vehicle: saline with Tween-80
[15] = dose: 400.0 mg/kg/injection, schedule: Q04DX003 (ip), vehicle: saline with Tween-80
[16] = dose: 100.0 mg/kg/injection, schedule: Q01DX009 (ip), vehicle: saline
[17] = dose: 200.0 mg/kg/injection, schedule: Q01DX009 (ip), vehicle: saline
[18] = dose: 50.0 mg/kg/injection, schedule: Q01DX005 (ip), vehicle: saline
[19] = dose: 100.0 mg/kg/injection, schedule: Q01DX005 (ip), vehicle: saline

Measured: T/C

O=[N+]([O-])c1c(Cl)nc(-c2ccccc2)nc1Cl
inactive: dose: 6.25 mg/kg/injection, schedule: Q01DX005 (ip), vehicle: Klucel (hydroxypropylcellulose) (HPC) 101 % of control | dose: 12.5 mg/kg/injection, schedule: Q01DX005 (ip), vehicle: Klucel (hydroxypropylcellulose) (HPC) 93 % of control | dose: 25.0 mg/kg/injection, schedule: Q01DX005 (ip), vehicle: Klucel (hydroxypropylcellulose) (HPC) 100 % of control

CCCCN(CCCC)CCNc1ccc(C)c2sc3c(Cl)cccc3c(=O)c12
inactive: [1] 99 % of control | [2] 108 % of control | [3] 105 % of control

N#CCC(=O)N/N=C(/CC1(O)C(=O)Nc2c(Cl)cc(Cl)cc21)c1ccccc1 (stereo not given)
inactive: [4] 102 % of control | [5] 100 % of control | [6] 104 % of control

CN(C)c1cc[n+](-c2c([O-])c3ccccc3n(-c3ccccc3)c2=O)cc1
inactive: [1] 107 % of control | [2] 104 % of control | [3] 97 % of control

CSC(C(=O)c1ccccc1)c1ccccc1 (stereo not given)
inactive: dose: 25.0 mg/kg/injection, schedule: Q01DX009 (ip), vehicle: saline + alcohol 87 % of control | dose: 50.0 mg/kg/injection, schedule: Q01DX009 (ip), vehicle: saline + alcohol 96 % of control | dose: 100.0 mg/kg/injection, schedule: Q01DX009 (ip), vehicle: saline + alcohol 112 % of control

c1ccc(CNc2cccc(NCc3ccccn3)n2)nc1
inactive: [1] 101 % of control | [2] 95 % of control | [3] 108 % of control

O=C(O)c1cc2cc3c(cc2c2ccccc12)OCO3
inactive: [1] 100 % of control | [2] 106 % of control | [3] 108 % of control

O=C(O)C(S(=O)(=O)O)S(=O)(=O)O
inactive: dose: 1.56 mg/kg/injection, schedule: Q01DX001 (ip), vehicle: saline with Tween-80 103 % of control | dose: 3.13 mg/kg/injection, schedule: Q01DX001 (ip), vehicle: saline with Tween-80 100 % of control | dose: 6.25 mg/kg/injection, schedule: Q01DX001 (ip), vehicle: saline with Tween-80 100 % of control

O=[N+]([O-])c1ccc2c(N=Nc3c(O)ccc4ccccc34)c(O)cc(S(=O)(=O)O)c2c1
inactive: dose: 100.0 mg/kg/injection, schedule: Q04DX003 (ip), vehicle: saline 100 % of control | dose: 132.0 mg/kg/injection, schedule: Q01DX009 (ip), vehicle: saline with Tween-80 109 % of control | [7] 109 % of control | dose: 200.0 mg/kg/injection, schedule: Q04DX003 (ip), vehicle: saline 100 % of control | dose: 300.0 mg/kg/injection, schedule: Q01DX009 (ip), vehicle: saline with Tween-80 113 % of control | dose: 400.0 mg/kg/injection, schedule: Q04DX003 (ip), vehicle: saline 111 % of control

CCOC(=O)CSc1ccc(C)cc1C(O)(C(F)(F)F)C(F)(F)F
inactive: [8] 98 % of control | [9] 99 % of control | dose: 50.0 mg/kg/injection, schedule: Q01DX009 (ip), vehicle: saline with Tween-80 108 % of control | dose: 100.0 mg/kg/injection, schedule: Q01DX009 (ip), vehicle: saline with Tween-80 99 % of control | [7] 101 % of control

O=C(O)COc1cc(Cl)c(Cl)cc1Cl
inactive: dose: 6.25 mg/kg/injection, schedule: Q01DX005 (ip), vehicle: saline with Tween-80 98 % of control | dose: 12.5 mg/kg/injection, schedule: Q01DX005 (ip), vehicle: saline with Tween-80 100 % of control | dose: 25.0 mg/kg/injection, schedule: Q01DX005 (ip), vehicle: saline with Tween-80 98 % of control | [4] 98 % of control | [5] 106 % of control | [6] 97 % of control

CN1OC(=O)OC(C)(c2ccccc2)C1=O (stereo not given)
inactive: [4] 98 % of control | [5] 97 % of control | [6] 97 % of control

BrC1=NOC2c3cccc4cccc(c34)C12 (stereo not given)
inactive: [10] 108 % of control | [11] 106 % of control | [12] 105 % of control

NC(CS(=O)c1ccc(Cl)cc1)C(=O)O (stereo not given)
inactive: dose: 6.25 mg/kg/injection, schedule: Q01DX009 (ip), vehicle: saline with Tween-80 95 % of control | [8] 95 % of control | [9] 100 % of control

CC(C)C1=CC2=CCC3C(C)(C(N)=O)CCCC3(C)C2CC1CC#N (stereo not given)
inactive: [13] 95 % of control | [14] 91 % of control | [15] 91 % of control

C[CH2][Ge]([CH2]C)[CH2]C.C[CH2][Ge]([CH2]C)[O]C(C)=O
inactive: dose: 50.0 mg/kg/injection, schedule: Q01DX009 (ip), vehicle: saline 95 % of control | [16] 98 % of control | [17] 96 % of control

COC(=O)C(O)(C(=O)OC)C1=C(N)C(=O)c2ccccc2C1=O
inactive: [18] 111 % of control | [19] 123 % of control

C[Si](C)(C)c1ccc2c(c1O)C(=O)c1ccccc1C2=O
inactive: [4] 100 % of control | [5] 100 % of control | [6] 102 % of control

CC(=O)Nc1ccc(S(=O)(=O)c2ccc([N+](=O)[O-])s2)cc1
inactive: dose: 25.0 mg/kg/injection, schedule: Q04DX003 (ip), vehicle: Klucel (hydroxypropylcellulose) (HPC) 105 % of control | dose: 50.0 mg/kg/injection, schedule: Q04DX003 (ip), vehicle: Klucel (hydroxypropylcellulose) (HPC) 102 % of control

CCC(=O)NC(C)C(=O)O (stereo not given)
inactive: dose: 6.25 mg/kg/injection, schedule: Q01DX009 (ip), vehicle: saline 100 % of control | dose: 12.5 mg/kg/injection, schedule: Q01DX009 (ip), vehicle: saline 88 % of control | dose: 25.0 mg/kg/injection, schedule: Q01DX009 (ip), vehicle: saline 88 % of control | [16] 94 % of control | [17] 97 % of control

O=C(CCSCCC(=O)N/N=C/C(O)C(O)C(O)C(O)CO)N/N=C/C(O)C(O)C(O)C(O)CO (stereo not given)
inactive: [4] 99 % of control | [18] 97 % of control | [5] 98 % of control | [19] 98 % of control | [6] 96 % of control | dose: 200.0 mg/kg/injection, schedule: Q01DX005 (ip), vehicle: saline 99 % of control

C=C(C)C1CC=C(C)C(OCCN(CC)CC)C1 (stereo not given)
inactive: [1] 100 % of control | [2] 103 % of control

CCCOn1nnc2ccccc21
inactive: [13] 99 % of control | [14] 102 % of control | [15] 107 % of control

Cc1ccccc1-n1c(-c2ccccc2)cs/c1=N\N=C1/CSC(=O)N1Cc1ccccc1
inactive: dose: 100.0 mg/kg/injection, schedule: Q01DX001 (ip), vehicle: Klucel (hydroxypropylcellulose) (HPC) 107 % of control | dose: 200.0 mg/kg/injection, schedule: Q01DX001 (ip), vehicle: Klucel (hydroxypropylcellulose) (HPC) 104 % of control | dose: 400.0 mg/kg/injection, schedule: Q01DX001 (ip), vehicle: Klucel (hydroxypropylcellulose) (HPC) 89 % of control

CCN1c2ccccc2Sc2cc(C=O)ccc21
inactive: dose: 50.0 mg/kg/injection, schedule: Q01DX009 (ip), vehicle: Klucel (hydroxypropylcellulose) (HPC) 91 % of control | dose: 100.0 mg/kg/injection, schedule: Q01DX009 (ip), vehicle: Klucel (hydroxypropylcellulose) (HPC) 107 % of control | dose: 200.0 mg/kg/injection, schedule: Q01DX009 (ip), vehicle: Klucel (hydroxypropylcellulose) (HPC) 101 % of control

COc1ccc2oc(-c3ccc(Cl)cc3)c(N3CCN(C)CC3)c2c1
inactive: dose: 60.0 mg/kg/injection, schedule: Q01DX005 (ip), vehicle: saline 102 % of control and 93 % of control and 97 % of control | dose: 120.0 mg/kg/injection, schedule: Q01DX005 (ip), vehicle: saline 102 % of control and 103 % of control and 105 % of control | dose: 240.0 mg/kg/injection, schedule: Q01DX005 (ip), vehicle: saline 122 % of control and 96 % of control

Cc1ccccc1C1N(Cc2ccccc2)C(=S)C1(C(C)C)C(C)(C)C (stereo not given)
inactive: dose: 100.0 mg/kg/injection, schedule: Q01DX001 (ip), vehicle: saline with Tween-80 102 % of control | dose: 200.0 mg/kg/injection, schedule: Q01DX001 (ip), vehicle: saline with Tween-80 92 % of control | dose: 400.0 mg/kg/injection, schedule: Q01DX001 (ip), vehicle: saline with Tween-80 94 % of control

COc1cc(C(c2cc3c(cc2O)OCO3)N2CCCCC2)cc(OC)c1OC (stereo not given)
inactive: [10] 111 % of control and 118 % of control and 123 % of control | [11] 111 % of control and 118 % of control | [12] 103 % of control | dose: 480.0 mg/kg/injection, schedule: Q01DX005 (ip), vehicle: saline with Tween-80 118 % of control

Source: PubChem BioAssay AID330 (DTP/NCI, 2004)
